The source of these data is patent US10202360B2 (CELGENE QUANTICEL RESEARCH, INC., priority 2016, dated 2019).

Chain of CREBBP (Q92793 1081-1197): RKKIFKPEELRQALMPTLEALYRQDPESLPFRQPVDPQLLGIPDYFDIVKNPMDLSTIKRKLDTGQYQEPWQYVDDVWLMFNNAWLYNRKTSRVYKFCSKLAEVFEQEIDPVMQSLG

This experiment concerns the target CREBBP (Homo sapiens (Human), UniProt Q92793). The experiment in a line: In vitro enzyme inhibition assay - CREBBP inhibition (AlphaScreen, biotinylated H4-tetraacetyl peptide). Type of experiment: binding. To be noted: Table 28; AlphaScreen, H4-tetraacetyl peptide. As for the experimental part:
Determination of the IC50 for the CREBBP inhibitors disclosed herein was performed as follows: CREBBP was cloned and expressed in E. Coli as His-tag protein and purified by Nickel affinity and gel-filtration chromatography. […] CREBBP binding and inhibition was assessed by monitoring the interaction of biotinylated H4-tetraacetyl peptide (AnaSpec, H4K5/8/12/16(Ac), biotin-labeled) with the target using the AlphaScreen technology (Perkin Elmer). In a 384-well ProxiPlate CREBBP (50 nM final) was combined with peptide (20 nM final) in 50 mM HEPES (pH 7.3), 10 mM NaCl, 0.25 mM TCEP, 0.1% (w/v) BSA, and 0.005% (w/v) Brij-35 either in the presence of DMSO (final 0.4% DMSO) or compound dilution series in DMSO. After 20-minute incubation at room temperature, Alpha streptavidin donor beads and Nickel Chelate acceptor beads were added to a final concentration of 5 μg/mL. After two hours of equilibration, plates were read on an Envision instrument and the IC50 was calculated using a four parameter non-linear curve fit.
The ability of the compounds disclosed herein to inhibit CBP activity was quantified and the respective IC50 value was determined.
(Alpha assays give light when donor and acceptor beads are brought close together.)
Usually IC50 stands for the midpoint of a concentration-inhibition curve. A high value points to weaker potency in that assay. `CCCS(=O)(=O)Nc1cc(-c2cc(C)c(=O)n(C3COC3)c2)nc(Oc2c(C)cccc2C)n1` [Example 55, Propane-1-sulfonic acid [2-(2,6-dimethyl-phenoxy)-6-(5-methyl-1-oxetan-3-yl-6-oxo-1,6-dihydro-pyridin-3-yl)-pyrimidin-4-yl]-amide] yielded a 50% inhibitory concentration (IC50) of 500 to 5000 nM.

In the case of `CCCCS(=O)(=O)Nc1cc(Oc2c(C)cccc2C)nc(-c2cc(C)c(=O)n(C)c2)n1` [Example 56, Butane-1-sulfonic acid [2-(1,5-dimethyl-6-oxo-1,6-dihydro-pyridin-3-yl)-6-(2,6-dimethyl-phenoxy)-pyrimidin-4-yl]-amide], the 50% inhibitory concentration (IC50) is less than 500 nM.

In the case of `Cc1cc(-c2cc(NS(=O)(=O)C(C)C)nc(Oc3cccc4ccn(C)c34)n2)cn(C)c1=O` [Example 57, Propane-2-sulfonic acid [6-(1,5-dimethyl-6-oxo-1,6-dihydro-pyridin-3-yl)-2-(1-methyl-1H-indol-7-yloxy)-pyrimidin-4-yl]-amide], the IC50 is less than 500 nM.

In the case of `Cc1cc2c(Oc3nc(NS(=O)(=O)C(C)C)cc(-c4cc(C)c(=O)n(C)c4)n3)cccc2o1` [Example 58, N-(6-(1,5-dimethyl-6-oxo-1,6-dihydropyridin-3-yl)-2-((2-methylbenzofuran-4-yl)oxy)pyrimidin-4-yl)propane-2-sulfonamide], the IC50 was less than 500 nM.

`Cc1cc(-c2cc(NS(=O)(=O)C(C)C)nc(Oc3cccc4occc34)n2)cn(C)c1=O` [Example 59, N-(2-(benzofuran-4-yloxy)-6-(1,5-dimethyl-6-oxo-1,6-dihydropyridin-3-yl)pyrimidin-4-yl)propane-2-sulfonamide] had an IC50 of less than 500 nM.

`CCCS(=O)(=O)Nc1cc(Oc2c(C)cc(Cl)cc2Cl)nc(-c2cc(C)c(=O)n(C)c2)n1` [Example 60, Propane-1-sulfonic acid [6-(2,4-dichloro-6-methyl-phenoxy)-2-(1,5-dimethyl-6-oxo-1,6-dihydro-pyridin-3-yl)-pyrimidin-4-yl]-amide]: the IC50 was less than 500 nM.

Take `Cc1cc(-c2cc(NS(C)(=O)=O)nc(Oc3ccc(F)cc3F)n2)cn(C)c1=O` [Example 61, N-(2-(2,4-difluorophenoxy)-6-(1,5-dimethyl-6-oxo-1,6-dihydropyridin-3-yl)pyrimidin-4-yl)methanesulfonamide]: the IC50 was less than 500 nM.

As to `Cc1cc(-c2cc(NS(=O)(=O)C(C)C)nc(Oc3ccc(F)cc3F)n2)cn(C)c1=O` [Example 62, N-(2-(2,4-difluorophenoxy)-6-(1,5-dimethyl-6-oxo-1,6-dihydropyridin-3-yl)pyrimidin-4-yl)propane-2-sulfonamide], the IC50 is less than 500 nM.

As to `Cc1cc(-c2cc(NS(=O)(=O)C3CC3)nc(Oc3ccc(F)cc3F)n2)cn(C)c1=O` [Example 63, N-(2-(2,4-difluorophenoxy)-6-(1,5-dimethyl-6-oxo-1,6-dihydropyridin-3-yl)pyrimidin-4-yl)cyclopropanesulfonamide], the IC50 was less than 500 nM.

Turning to `CCCCS(=O)(=O)Nc1cc(-c2cc(C)c(=O)n(C)c2)nc(Oc2ccc(F)cc2F)n1` [Example 64, N-(2-(2,4-difluorophenoxy)-6-(1,5-dimethyl-6-oxo-1,6-dihydropyridin-3-yl)pyrimidin-4-yl)butane-1-sulfonamide], the half-inhibitory concentration (IC50) is less than 500 nM.

`Cc1cc(-c2cc(NS(=O)(=O)C(C)(C)C)nc(Oc3ccc(F)cc3F)n2)cn(C)c1=O` [Example 65, N-(2-(2,4-difluorophenoxy)-6-(1,5-dimethyl-6-oxo-1,6-dihydropyridin-3-yl)pyrimidin-4-yl)-2-methylpropane-2-sulfonamide] came in with a half-inhibitory concentration (IC50) of less than 500 nM.

As to `Cc1cc(F)ccc1Oc1nc(NS(=O)(=O)C(C)C)cc(-c2cc(C)c(=O)n(C)c2)n1` [Example 67, N-(6-(1,5-dimethyl-6-oxo-1,6-dihydropyridin-3-yl)-2-(4-fluoro-2-methylphenoxy)pyrimidin-4-yl)propane-2-sulfonamide], the IC50 was less than 500 nM.

Regarding `COc1ccc(Oc2nc(NS(=O)(=O)C(C)C)cc(-c3cc(C)c(=O)n(C)c3)n2)cc1Cl` [Example 68, N-(2-(3-chloro-4-methoxyphenoxy)-6-(1,5-dimethyl-6-oxo-1,6-dihydropyridin-3-yl)pyrimidin-4-yl)propane-2-sulfonamide], the IC50 is less than 500 nM.

As to `Cc1cc(-c2cc(NS(=O)(=O)C(C)C)nc(Oc3ccccc3)n2)cn(C)c1=O` [Example 69, N-(6-(1,5-dimethyl-6-oxo 1,6-dihydropyridin-3-yl)-2-phenoxypyrimidin-4-yl)propane-2-sulfonamide], the IC50 is less than 500 nM.

Compound `Cc1cc(-c2cc(NS(=O)(=O)C(C)C)nc(Oc3ccc(F)cc3)n2)cn(C)c1=O` [Example 70, N-(6-(1,5-dimethyl-6-oxo-1,6-dihydropyridin-3-yl)-2-(4-fluorophenoxy)pyrimidin-4-yl)propane-2-sulfonamide] registered an IC50 of less than 500 nM.

Compound `Cc1cccc(C)c1Oc1nc(NS(=O)(=O)C(C)C)cc(-c2cc(C)c(=O)n(C)c2)n1` [Example 71, N-(6-(1,5-dimethyl-6-oxo-1,6-dihydropyridin-3-yl)-2-(2,6-dimethylphenoxy)pyrimidin-4-yl)propane-2-sulfonamide] returned an IC50 of less than 500 nM.

As to `Cc1cc(-c2cc(N(C)S(=O)(=O)C(C)C)nc(Oc3ccc(F)cc3F)n2)cn(C)c1=O` [Example 73, N-(2-(2,4-difluorophenoxy)-6-(1,5-dimethyl-6-oxo-1,6-dihydropyridin-3-yl)pyrimidin-4-yl)-N-methylpropane-2-sulfonamide], the half-inhibitory concentration (IC50) was less than 500 nM.

As for `CCCCS(=O)(=O)Nc1cc(-c2cc(C)c(=O)n(C)c2)nc(Oc2cnn(C)c2)n1` [Example 74, N-(6-(1,5-dimethyl-6-oxo-1,6-dihydropyridin-3-yl)-2-((1-methyl-1H-pyrazol-4-yl)oxy)pyrimidin-4-yl)butane-1-sulfonamide], the IC50 was less than 500 nM.

In the case of `CCCCS(=O)(=O)Nc1cc(-c2cc(C)c(=O)n(C)c2)nc(Oc2cccc3c2ccn3C)n1` [Example 75, N-(6-(1,5-dimethyl-6-oxo-1,6-dihydropyridin-3-yl)-2-((1-methyl-1H-indol-4-yl)oxy)pyrimidin-4-yl)butane-1-sulfonamide], the IC50 is less than 500 nM.

Compound `Cc1cc(-c2cc(NS(=O)(=O)C(C)C)nc(Oc3cccc4c3ccn4C)n2)cn(C)c1=O` [Example 76, N-(6-(1,5-dimethyl-6-oxo-1,6-dihydropyridin-3-yl)-2-((1-methyl-1H-indol-4-yl)oxy)pyrimidin-4-yl)propane-2-sulfonamide] yielded a half-inhibitory concentration (IC50) of less than 500 nM.

The compound `Cc1cc(-c2cc(NC(=O)CC(C)C)nc(Oc3ccc(F)cc3F)n2)cn(C)c1=O` [Example 77, N-(2-(2,4-difluorophenoxy)-6-(1,5-dimethyl-6-oxo-1,6-dihydropyridin-3-yl)pyrimidin-4-yl)-3-methylbutanamide] displayed an IC50 of 500 to 5000 nM.

The compound `COCCS(=O)(=O)Nc1cc(-c2cc(C)c(=O)n(C)c2)nc(Oc2c(C)cccc2C)n1` [Example 78, N-(6-(1,5-dimethyl-6-oxo-1,6-dihydropyridin-3-yl)-2-(2,6-dimethylphenoxy)pyrimidin-4-yl)-2-methoxyethane-1-sulfonamide] gave an IC50 of less than 500 nM.

Regarding `CCCCC(=O)Nc1cc(-c2cc(C)c(=O)n(C)c2)nc(Oc2ccc(F)cc2F)n1` [Example 79, N-(2-(2,4-difluorophenoxy)-6-(1,5-dimethyl-6-oxo-1,6-dihydropyridin-3-yl)pyrimidin-4-yl)pentanamide], the half-maximal inhibitory concentration (IC50) is less than 500 nM.

As to `CCCS(=O)(=O)Nc1cc(-c2cc(C)c(=O)n(C)c2)nc(Oc2c(C)cccc2C)n1` [Example 80, N-(6-(1,5-dimethyl-6-oxo-1,6-dihydropyridin-3-yl)-2-(2,6-dimethylphenoxy)pyrimidin-4-yl)propane-1-sulfonamide], the IC50 was less than 500 nM.

Regarding `Cc1cccc(C)c1Oc1nc(NS(=O)(=O)CCCF)cc(-c2cc(C)c(=O)n(C)c2)n1` [Example 81, N-(6-(1,5-dimethyl-6-oxo-1,6-dihydropyridin-3-yl)-2-(2,6-dimethylphenoxy)pyrimidin-4-yl)-3-fluoropropane-1-sulfonamide], the IC50 is less than 500 nM.

The compound `Cc1cccc(C)c1Oc1nc(NS(=O)(=O)CC2CC2)cc(-c2cc(C)c(=O)n(C)c2)n1` [Example 82, 1-cyclopropyl-N-(6-(1,5-dimethyl-6-oxo-1,6-dihydropyridin-3-yl)-2-(2,6-dimethylphenoxy)pyrimidin-4-yl)methanesulfonamide] registered an IC50 of less than 500 nM.

Turning to `Cc1cccc(C)c1Oc1nc(NS(=O)(=O)CC(C)C)cc(-c2cc(C)c(=O)n(C)c2)n1` [Example 83, N-(6-(1,5-dimethyl-6-oxo-1,6-dihydropyridin-3-yl)-2-(2,6-dimethylphenoxy)pyrimidin-4-yl)-2-methylpropane-1-sulfonamide], the IC50 is less than 500 nM.

`CCC(C)S(=O)(=O)Nc1cc(-c2cc(C)c(=O)n(C)c2)nc(Oc2c(C)cccc2C)n1` (centres unmarked) [Example 84, N-(6-(1,5-dimethyl-6-oxo-1,6-dihydropyridin-3-yl)-2-(2,6-dimethylphenoxy)pyrimidin-4-yl)butane-2-sulfonamide]: the half-maximal inhibitory concentration (IC50) was less than 500 nM.

Regarding `COC(C)CS(=O)(=O)Nc1cc(-c2cc(C)c(=O)n(C)c2)nc(Oc2c(C)cccc2C)n1` (centres unmarked) [Example 85, N-(6-(1,5-dimethyl-6-oxo-1,6-dihydropyridin-3-yl)-2-(2,6-dimethylphenoxy)pyrimidin-4-yl)-2-methoxypropane-1-sulfonamide], the IC50 was less than 500 nM.
